Laboratory results: patent US20130336940A1, “MODIFIED PIG ISLETS FOR DIABETES TREATMENT” (UNIVERSITE CATHOLIQUE DE LOUVAIN, priority 2011, published 2013)

Experiments:
isolated pig islets [1] = assay: In vitro islet functionality (24 hr incubation at G5, G15, G15+Fsk; insulin/glucagon RIA); type: cell-based; settings: for G15/G5 ratio of insulin secretion: native islets 1.16; for glucagon content, fold vs native islets: 50 mg/kg treated islets; for insulin secretion, fold vs 50 mg/kg treated islets / insulin secretion, fold vs native islets: islets from pigs treated with 30 mg/kg STZ; for glucagon secretion, fold in comparison to 0 mg/kg / glucagon secretion, fold in comparison to 30 mg/kg: islets from pigs treated with 50 mg/kg STZ
Description: The following steps were performed with the samples kept on ice. […] The samples were then sonicated 4×20 seconds (Sonifier B 12 [Branson Sonic Power Company, Danbury, Conn., USA]) and centrifugated 10 minutes at 4° C. at 1500 rpm. The first supernatant formed was removed and kept at −20° C. […] The samples were then kept at −20° C. overnight. After a step of centrifugation 10 minutes at 4° C. at 1500 rpm, the second supernatant was removed and kept at −20° C. […] The three supernatants were then pooled and constituted the pancreas extract. Human insulin specific RIA KIT and Glucagon RIA KIT (Millipore, Billerica, Mass., USA) were used for the determination of the hormonal content in human/pig pancreatic extractions as well as in isolated islets (see below). The content of insulin and glucagon in the extracts was performed following the instructions of the manufacturer. […] After incubation overnight at room temperature, 1 mL of precipitating reagent were added, followed by incubation 20 minutes at 4° C. The samples were then centrifuged 20 minutes at 2000-3000×g at 4° C.
Three replicates per concentration were performed. Media were thereafter recovered for insulin and glucagon quantification and islets were transferred in acid-ethanol for hormones extraction and quantification by radioimmuno-assay (see above).

pigs = assay: Intravenous glucose tolerance test (IVGTT) in STZ-injected pigs; type: in vivo, pig
Description: […] STZ was solubilised in citrate buffer (25% v/v Na citrate, 23% v/v citric acid, 52% v/v H2O, pH 4.5) and filtered before injection in the external jugular vein (Dufrane, Transplantation, 2006).
Intravenous glucose tolerance tests (IVGTTs) were performed prior and 3 months after STZ injection under general anesthesia (induction by Zoletil (VIRBAC, Carros, France) IM at a dose of 6 mg/kg, maintained by intubation and inhalation of Enflurane (0-1.5%), nitrous oxide and oxygen. A catheter was introduced in the extern jugular vein and a solution of 0.5 g glucose/kg was injected. Blood samples were taken prior and 1, 3, 5, 10, 20, 30, 60, 90 minutes after complete injection of glucose. Glycaemia was measured on these samples (AccuChek, Roche, Brussels, Belgium) and serum was conserved for radioimmuno assay (RIA) quantifications (insulin, c-peptide).

isolated pig islets [2] = assay: Islet structure after isolation (histology of isolated islets from STZ-treated pigs); type: in vivo; settings: for proportion of beta-cells in islets: mean±SD, native 91.47±1.19
Description: (ii) Young pig islets treated with selected doses of STZ (0, 30, 50 mg/kg) were isolated following a method previously described by Dufrane et al, Xenotransplantation, 2006. Briefly, after being completely dissected, the pancreas were digested by a modified static digestion method: infusion of the pancreas with Liberase DL Research Grade (Roche/Boehringer Mannheim, Brussels, Belgium; 0.43 mg/mL) dissolved in modified UW solution; placement in a sterile 1 L Nalgene jar for digestion by static incubation at 37° C. for 30-50 minutes; filtration in a 500 μm filter; purification in a ficoll grade (densities 1.090, 1.060 and 1.010) (Mediatech Cellgro); washing and suspension of the islets in Ham-F10 (Gibco)+10% New Born Calf Serum (NCS; Merck-Eurolab, Overijse, Belgium).
The cellular composition of human and pig isolated islets was determined by immunohistochemistry. After overnight fixation in formol at room temperature, aliquots of islet preparations were embedded in paraffin and cut in 5 μm sections. Insulin and glucagon staining were performed as described above.
Alpha and β cells proportion and localization (for pig and human) inside islets were compared in isolated islets from 0, 30 and 50 mg/kg STZ pigs in 3 groups of 5 islets (50-99, 100-149 and 150-200 μm).

hamsters = settings: after STZ treatment; cited from earlier work
[3] = STZ 30 mg/kg, isolated islets of 50-150 μm
[4] = STZ 50 mg/kg, isolated islets of 50-150 μm
[5] = STZ 50 mg/kg, isolated islets of each size

With `CN(N=O)C(=O)N[C@H]1C(O)O[C@H](CO)[C@@H](O)[C@@H]1O` (mixture of isomers) [STZ, Streptozotocin] the “stimulation index increase in comparison to native islets” value (isolated pig islets [1]; 30 mg/kg STZ) was 45%, the “G15/G5 ratio of insulin secretion” value (isolated pig islets [1]; 30 mg/kg STZ-treated islets) was 1.68 and the “insulin content, times more than native islets” value (isolated pig islets [1]; 30 mg/kg STZ, G5 stimulation) was 3.3 times. The “insulin content, times more than native islets” value (isolated pig islets [1]; 30 mg/kg STZ, G15 stimulation) was 2.5 times, the “stimulation index increase in comparison to native islets” value (isolated pig islets [1]; 50 mg/kg STZ) was 28% and the “G15/G5 ratio of insulin secretion” value (isolated pig islets [1]; 50 mg/kg STZ-treated islets) was 1.49. The “insulin content, times higher than native islets” value (isolated pig islets [1]; 50 mg/kg STZ, G5 stimulation) was 1.5 times, the “insulin secretion increase in comparison with native pig islets” value (isolated pig islets [1]; 50 mg/kg STZ, G5 stimulation) was 1.3 times and the “insulin content, times higher than native islets” value (isolated pig islets [1]; 50 mg/kg STZ, G15 stimulation) was 1.4 times. The “insulin secretion increase in comparison with native pig islets” value (isolated pig islets [1]; 50 mg/kg STZ, G15 stimulation) was 1.4 times, the “glucagon content, fold vs native islets” value (isolated pig islets [1]; G5) was 7.9 × and the “glucagon content, fold vs native islets” value (isolated pig islets [1]; G15 stimulation) was 10.4 ×. The “increase of the secretion of glucagon by isolated pig islets” value (isolated pig islets [1]; after 30-50 mg/kg STZ) was 1.3 to 3.0 ×, the “increase of insulin release” value (isolated pig islets [1]; islet remodeling with low doses of STZ) was 1.29 to 2.13 × and the “glucagon content, times higher than native islets” value (isolated pig islets [1]; islets from 30 mg/kg treated pigs, G5-G15 stimulations) was 4.4 times. The “insulin secretion, fold vs 50 mg/kg treated islets” value (isolated pig islets [1]; G5 stimulation) was 1.6 ×, the “insulin secretion, fold vs native islets” value (isolated pig islets [1]; G5 stimulation) was 2.1 × and the “insulin secretion, fold vs 50 mg/kg treated islets” value (isolated pig islets [1]; G15 stimulation) was 1.5 ×. The “insulin secretion, fold vs native islets” value (isolated pig islets [1]; G15 stimulation) was 2.1 ×, the “glucagon secretion, fold in comparison to 0 mg/kg” value (isolated pig islets [1]; G5 stimulation) was 2.5 × and the “glucagon secretion, fold in comparison to 30 mg/kg” value (isolated pig islets [1]; G5 stimulation) was 2.0 ×. The “glucagon secretion, fold in comparison to 0 mg/kg” value (isolated pig islets [1]; G15 stimulation) was 3.0 ×, the “glucagon secretion, fold in comparison to 30 mg/kg” value (isolated pig islets [1]; G15 stimulation) was 1.6 × and the “AUC for IVGTT curves” value (pigs; STZ 150 mg/kg) was “significant higher AUC”. For the same compound, the “glucose metabolism (IVGTT curves)” value (pigs; STZ 30, 50, 75 and 100 mg/kg, single injection, IVGTT 3 months after, vs control animals) was “not sufficient to induce dysfunction in glucose metabolism”, the “glucose uptake (IVGTT)” value (pigs; STZ 30-50 mg/kg) was “did not affect glucose uptake” and the “number of alpha cells per islet in comparison to humans” value (isolated pig islets [2]; [3]) was “higher number of alpha cells”. The “proportion of beta-cells in islets” value (isolated pig islets [2]; [3]) was 60.46±3.70, the “proportion of alpha cells per islet in comparison to humans” value (isolated pig islets [2]; STZ 30 mg/kg, isolated islets of 100-150 μm) was “higher proportion of alpha cells” and the “number of beta cells per islet in comparison to humans” value (isolated pig islets [2]; STZ 30 mg/kg, isolated islets of 100-200 μm) was “higher number of beta cells”. For the same compound, the “number of beta cells in comparison to humans” value (isolated pig islets [2]; [4]) was “higher”, the “proportion of beta-cells in islets” value (isolated pig islets [2]; [4]) was 60.46±4.55 and the “alpha cell proportion in comparison to humans” value (isolated pig islets [2]; [5]) was “higher alpha cell proportion”. The “number of alpha cells per islet in comparison to humans” value (isolated pig islets [2]; [5]) was “higher number of alpha cells”, the “number of beta cells in comparison to humans” value (isolated pig islets [2]; STZ 50 mg/kg, large isolated islets (150-200 μm)) was “similar” and the “decrease of β-cells (proportion)” value (isolated pig islets [2]; STZ 30-50 mg/kg) was 30%. The “increase of α-cells” value (isolated pig islets [2]; STZ 30-50 mg/kg) was ~300%, the “α-cells in remodeled pig islet” value (isolated pig islets [2]; STZ 30-50 mg/kg) was 30% and the “β-cells in remodeled pig islet” value (isolated pig islets [2]; STZ 30-50 mg/kg) was 60%. The glucagon content (hamsters) was “increased”.
